Experimental data taken from PubChem BioAssay AID330 (DTP/NCI, 2004).
Values joined by “and” are separate entries in the source; they are usually repeats but may differ in a detail not shown here. Equal entries are not always repeated. Toxic doses and inconclusive results are not listed. How the source made its calls: active means survival T/C of 150% or more; inactive means T/C below 125% in these data. Peptide text beside a SMILES is read from it.

Test system: P388 leukemia ip, CD2F1 mice, survival T/C
Test: NCI In Vivo Anticancer Drug Screen. Data for tumor model P388 Leukemia (intraperitoneal) in CD2F1 (CDF1) mice
Conditions: endpoint: median survival time, higher = longer survival
Method in brief: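 Mice carrying the transplanted tumor received test compound or vehicle. Survival was recorded in each group, and the value is the treated-group measurement divided by that of the vehicle-treated control group.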

[1] = dose: 60.0 mg/kg/injection, schedule: Q01DX005 (ip), vehicle: saline with Tween-80
[2] = dose: 50.0 mg/kg/injection, schedule: Q01DX009 (ip), vehicle: Klucel (hydroxypropylcellulose) (HPC)
[3] = dose: 100.0 mg/kg/injection, schedule: Q01DX009 (ip), vehicle: Klucel (hydroxypropylcellulose) (HPC)
[4] = dose: 200.0 mg/kg/injection, schedule: Q01DX009 (ip), vehicle: Klucel (hydroxypropylcellulose) (HPC)
[5] = dose: 120.0 mg/kg/injection, schedule: Q01DX005 (ip), vehicle: saline with Tween-80
[6] = dose: 240.0 mg/kg/injection, schedule: Q01DX005 (ip), vehicle: saline with Tween-80
[7] = dose: 50.0 mg/kg/injection, schedule: Q04DX003 (ip), vehicle: Klucel (hydroxypropylcellulose) (HPC)
[8] = dose: 100.0 mg/kg/injection, schedule: Q04DX003 (ip), vehicle: Klucel (hydroxypropylcellulose) (HPC)
[9] = dose: 200.0 mg/kg/injection, schedule: Q04DX003 (ip), vehicle: Klucel (hydroxypropylcellulose) (HPC)
[10] = dose: 50.0 mg/kg/injection, schedule: Q01DX009 (ip), vehicle: saline with Tween-80
[11] = dose: 100.0 mg/kg/injection, schedule: Q01DX009 (ip), vehicle: saline with Tween-80
[12] = dose: 200.0 mg/kg/injection, schedule: Q01DX009 (ip), vehicle: saline with Tween-80
[13] = dose: 12.5 mg/kg/injection, schedule: Q01DX009 (ip), vehicle: saline
[14] = dose: 50.0 mg/kg/injection, schedule: Q01DX009 (ip), vehicle: saline

Measured: T/C

COC(=O)c1nc(NN)[nH]c(=O)c1C
inactive: dose: 15.0 mg/kg/injection, schedule: Q01DX005 (ip), vehicle: saline with Tween-80 103 % of control | dose: 30.0 mg/kg/injection, schedule: Q01DX005 (ip), vehicle: saline with Tween-80 98 % of control | [1] 99 % of control and 97 % of control

O=C(O)COc1cc(Cl)c(Cl)cc1Cl
inactive: dose: 6.25 mg/kg/injection, schedule: Q01DX005 (ip), vehicle: saline with Tween-80 98 % of control | dose: 12.5 mg/kg/injection, schedule: Q01DX005 (ip), vehicle: saline with Tween-80 100 % of control | dose: 25.0 mg/kg/injection, schedule: Q01DX005 (ip), vehicle: saline with Tween-80 98 % of control | dose: 50.0 mg/kg/injection, schedule: Q01DX005 (ip), vehicle: saline with Tween-80 98 % of control | dose: 100.0 mg/kg/injection, schedule: Q01DX005 (ip), vehicle: saline with Tween-80 106 % of control | dose: 200.0 mg/kg/injection, schedule: Q01DX005 (ip), vehicle: saline with Tween-80 97 % of control

NC(CC(=O)O)C(=O)NC(CC(=O)O)C(=O)O (stereo not drawn) (H-Asp-Asp-OH; configuration not given here)
inactive: dose: 50.0 mg/kg/injection, schedule: Q01DX005 (ip), vehicle: saline 101 % of control | dose: 100.0 mg/kg/injection, schedule: Q01DX005 (ip), vehicle: saline 99 % of control | dose: 200.0 mg/kg/injection, schedule: Q01DX005 (ip), vehicle: saline 97 % of control

O=C1C(=C2C=CN(CCCN3CCCCC3)C=C2)C(=O)c2ccccc21
inactive: [2] 91 % of control | [3] 102 % of control | [4] 102 % of control

O=c1cc(N2CCOCC2)n2ccccc2n1
inactive: dose: 60.0 mg/kg/injection, schedule: Q01DX005 (ip), vehicle: saline 96 % of control | dose: 120.0 mg/kg/injection, schedule: Q01DX005 (ip), vehicle: saline 102 % of control | dose: 240.0 mg/kg/injection, schedule: Q01DX005 (ip), vehicle: saline 96 % of control

Cc1cc(=O)oc2ccc3c(=O)ccoc3c12
inactive: [1] 95 % of control | [5] 96 % of control | [6] 97 % of control

C/C=C1/CN2C3C[C@H]1C(CO)(C(=O)OC)[C@H]2Cc1c3n(C)c2ccccc12 (stereo partly specified)
inactive: dose: 10.0 mg/kg/injection, schedule: Q01DX009 (ip), vehicle: Klucel (hydroxypropylcellulose) (HPC) 100 % of control | dose: 20.0 mg/kg/injection, schedule: Q01DX009 (ip), vehicle: Klucel (hydroxypropylcellulose) (HPC) 101 % of control | dose: 40.0 mg/kg/injection, schedule: Q01DX009 (ip), vehicle: Klucel (hydroxypropylcellulose) (HPC) 104 % of control | dose: 80.0 mg/kg/injection, schedule: Q01DX009 (ip), vehicle: Klucel (hydroxypropylcellulose) (HPC) 100 % of control | dose: 160.0 mg/kg/injection, schedule: Q01DX009 (ip), vehicle: Klucel (hydroxypropylcellulose) (HPC) 94 % of control

ClCCN(CCN(CCCl)c1cccc2ccccc12)c1cccc2ccccc12
inactive: [7] 104 % of control | [8] 103 % of control | [9] 107 % of control

CCOC(=O)C(Cc1ccc(O)cc1)Nc1nc2ccccc2o1 (stereo unspecified)
inactive: [10] 95 % of control | [11] 105 % of control | [12] 103 % of control | dose: 400.0 mg/kg/injection, schedule: Q01DX009 (ip), vehicle: saline with Tween-80 96 % of control

c1ccc(-c2n[nH]c3ccccc23)cc1
inactive: dose: 25.0 mg/kg/injection, schedule: Q04DX003 (ip), vehicle: saline with Tween-80 101 % of control | dose: 50.0 mg/kg/injection, schedule: Q04DX003 (ip), vehicle: saline with Tween-80 110 % of control | dose: 100.0 mg/kg/injection, schedule: Q04DX003 (ip), vehicle: saline with Tween-80 101 % of control | dose: 200.0 mg/kg/injection, schedule: Q04DX003 (ip), vehicle: saline with Tween-80 99 % of control

C/C(=N\N=C(N)N)c1ccccc1
inactive: dose: 6.25 mg/kg/injection, schedule: Q01DX009 (ip), vehicle: saline 110 % of control | [13] 101 % of control

COC(=O)C1=C(C)OC2OCCC12 (stereo unspecified)
inactive: [1] 110 % of control | [5] 101 % of control | [6] 102 % of control

CCCCC(=O)Nc1ncc([N+](=O)[O-])s1
inactive: dose: 25.0 mg/kg/injection, schedule: Q01DX009 (ip), vehicle: Klucel (hydroxypropylcellulose) (HPC) 110 % of control | [2] 102 % of control and 104 % of control and 116 % of control | [3] 101 % of control and 103 % of control and 113 % of control | [4] 105 % of control and 111 % of control and 123 % of control

C[As](C)SC1CC(OC(=O)c2ccccc2)C(OC(=O)c2ccccc2)C(COC(=O)c2ccccc2)O1 (stereo unspecified)
inactive: [10] 100 % of control | [11] 106 % of control | [12] 105 % of control

Nc1nc(N)nc(-c2ccccc2)n1
inactive: dose: 50.0 mg/kg/injection, schedule: Q01DX009 (ip), vehicle: suspension in saline 106 % of control | dose: 100.0 mg/kg/injection, schedule: Q01DX009 (ip), vehicle: suspension in saline 99 % of control | dose: 200.0 mg/kg/injection, schedule: Q01DX009 (ip), vehicle: suspension in saline 106 % of control

C1CC[N-]CC1.C1CC[N-]CC1.C1CC[N-]CC1.C1CC[N-]CC1.N#C[S-].N#C[S-].[Ni]
inactive: dose: 5.0 mg/kg/injection, schedule: Q04DX003 (ip), vehicle: saline with Tween-80 100 % of control | dose: 10.0 mg/kg/injection, schedule: Q04DX003 (ip), vehicle: saline with Tween-80 100 % of control

CC1=CC(C)(C)NN1C1=NS(=O)(=O)c2ccccc2N1C
inactive: [1] 101 % of control | [5] 97 % of control | [6] 101 % of control

C/C(C(=O)NC1CC1)=C(\C)c1ccc(Br)cc1
inactive: [7] 99 % of control | [8] 99 % of control | [9] 98 % of control

Nc1ccc(N=O)c(N)n1
inactive: dose: 0.78 mg/kg/injection, schedule: Q01DX009 (ip), vehicle: saline 98 % of control | dose: 1.56 mg/kg/injection, schedule: Q01DX009 (ip), vehicle: saline 86 % of control | dose: 6.25 mg/kg/injection, schedule: Q01DX009 (ip), vehicle: saline with Tween-80 107 % of control | dose: 12.5 mg/kg/injection, schedule: Q01DX009 (ip), vehicle: saline with Tween-80 98 % of control | [13] 98 % of control | dose: 25.0 mg/kg/injection, schedule: Q01DX009 (ip), vehicle: saline with Tween-80 100 % of control | [14] 106 % of control

N#Cc1c(NC(=O)Nc2ccc(F)cc2F)sc(=S)c2c1CCCC2
inactive: [10] 100 % of control | [11] 99 % of control

CCN1C(=O)/C(=C/C=C/N(C)c2ccccc2)SC1=S
inactive: [14] 112 % of control | dose: 100.0 mg/kg/injection, schedule: Q01DX009 (ip), vehicle: saline 103 % of control
